The values that follow come from US20100216734A1, “MODULATION OF NEUROGENESIS BY NOOTROPIC AGENTS” (BrainCells, Inc., priority 2006, published 2010).

Test [1] has as its system human neural stem cells (hNSCs). Kind of test: Neuronal differentiation of human neural stem cells (TUJ-1 staining). The test is classed as cell-based. The conditions noted are these: for effect on neuronal differentiation, agent alone (in words): dose response of agent alone; for maximal percent neuronal differentiation in the presence of 1.0 μM NBQX: with 1.0 μM NBQX.
For test [2], the target named is mGluR2 (Homo sapiens, UniProt Q14416). The conditions noted are these: read-out: IC50 against mGluR2; cited from earlier work.
Chain of mGluR2 (Q14416 19-872): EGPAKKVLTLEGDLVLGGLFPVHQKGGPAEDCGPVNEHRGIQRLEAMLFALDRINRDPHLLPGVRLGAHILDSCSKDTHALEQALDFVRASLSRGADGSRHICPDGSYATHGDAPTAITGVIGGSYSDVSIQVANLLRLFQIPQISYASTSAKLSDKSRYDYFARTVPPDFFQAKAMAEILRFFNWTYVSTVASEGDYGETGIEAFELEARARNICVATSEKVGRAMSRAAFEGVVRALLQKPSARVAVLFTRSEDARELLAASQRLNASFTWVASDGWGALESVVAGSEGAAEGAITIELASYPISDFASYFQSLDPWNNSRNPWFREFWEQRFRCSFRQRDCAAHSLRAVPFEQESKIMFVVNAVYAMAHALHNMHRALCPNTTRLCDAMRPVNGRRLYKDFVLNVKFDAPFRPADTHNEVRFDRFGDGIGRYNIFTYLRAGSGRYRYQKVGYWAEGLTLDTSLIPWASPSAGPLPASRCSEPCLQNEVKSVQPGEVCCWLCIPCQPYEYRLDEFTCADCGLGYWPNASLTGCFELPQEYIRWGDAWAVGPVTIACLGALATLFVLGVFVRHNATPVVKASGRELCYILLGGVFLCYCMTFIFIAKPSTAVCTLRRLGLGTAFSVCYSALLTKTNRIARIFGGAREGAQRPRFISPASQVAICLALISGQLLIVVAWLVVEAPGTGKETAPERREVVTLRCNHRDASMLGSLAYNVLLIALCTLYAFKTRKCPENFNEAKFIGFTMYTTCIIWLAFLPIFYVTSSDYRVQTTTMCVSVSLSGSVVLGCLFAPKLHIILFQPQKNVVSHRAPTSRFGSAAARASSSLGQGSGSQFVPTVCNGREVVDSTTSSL
Test [3] has as its system Group I or Group III receptors. Particulars: at sub-mM concentrations; cited from earlier work.
For test [4], the target named is mGluR3 (Homo sapiens, UniProt Q14832). The conditions noted are these: read-out: IC50 against mGluR3; cited from earlier work.
Chain of mGluR3 (Q14832 23-879): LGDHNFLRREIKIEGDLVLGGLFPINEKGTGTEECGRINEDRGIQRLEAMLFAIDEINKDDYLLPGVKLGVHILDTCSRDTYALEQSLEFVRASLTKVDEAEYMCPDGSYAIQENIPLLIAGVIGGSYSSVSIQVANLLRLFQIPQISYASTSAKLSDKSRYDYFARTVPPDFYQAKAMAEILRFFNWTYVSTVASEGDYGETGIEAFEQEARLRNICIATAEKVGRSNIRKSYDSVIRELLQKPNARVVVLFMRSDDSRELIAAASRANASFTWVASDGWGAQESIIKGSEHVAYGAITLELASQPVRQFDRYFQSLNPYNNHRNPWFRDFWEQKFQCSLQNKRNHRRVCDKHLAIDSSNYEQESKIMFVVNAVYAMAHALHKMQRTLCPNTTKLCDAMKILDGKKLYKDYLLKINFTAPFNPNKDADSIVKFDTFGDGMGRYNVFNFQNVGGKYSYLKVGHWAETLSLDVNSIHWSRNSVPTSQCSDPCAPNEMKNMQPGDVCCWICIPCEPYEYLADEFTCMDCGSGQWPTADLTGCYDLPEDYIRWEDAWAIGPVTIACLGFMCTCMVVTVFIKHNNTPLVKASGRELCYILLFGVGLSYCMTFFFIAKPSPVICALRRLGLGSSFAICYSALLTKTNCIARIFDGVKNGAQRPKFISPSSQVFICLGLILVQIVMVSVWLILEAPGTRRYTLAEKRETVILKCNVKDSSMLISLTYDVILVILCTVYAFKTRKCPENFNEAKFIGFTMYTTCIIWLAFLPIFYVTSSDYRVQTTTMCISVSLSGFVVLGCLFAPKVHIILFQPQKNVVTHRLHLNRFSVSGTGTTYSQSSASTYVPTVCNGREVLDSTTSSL
The target of test [5] is human mGlu3 receptors (Homo sapiens, UniProt Q14832). Particulars: in vitro; low nanomolar range; read-out: EC50 against human mGlu3 receptors; cited from earlier work.
Chain of human mGlu3 receptors (Q14832 23-879): as above
The target of test [6] is human mGlu2 receptors (Homo sapiens, UniProt Q14416). Particulars: in vitro; low nanomolar range; read-out: EC50 against human mGlu2 receptors; cited from earlier work.
Chain of human mGlu2 receptors (Q14416 19-872): as the sequence (Q14416 19-872) above
Test [7] deals with KA, AMPA, and NMDA iGlu receptors. The conditions noted are these: cited from earlier work.
Test [8] concerns male F344 rats. Kind of test: Novel object recognition in rat. The format is in vivo. The conditions noted are these: 0.5 mg/kg/day i.p. once daily for 7 days, p<0.05. The method, then:
SGS-111 (0.5 mg/kg/day, i.p.) was administered to male F344 rats (n=12) once daily for 7 days. Animals were tested after 7 days of drug administration.
Shown in FIG. 9 is the mean number of visits to the novel object for vehicle and SGS-111 treated rats (±SEM). The y-axis represents mean visits. The x-axis indicates treatment. […] This difference is indicative of cognitive enhancement, an in vivo behavioral consequence of enhanced neurogenesis by SGS-111.

The mark [9] stands for this setting: Homo sapiens, Neural stem cell, hNSCs, agent run independently, % of neuronal positive control, basal media subtracted, read-out: EC50 for neuronal differentiation, agent alone.
Setting [10] is: hNSCs, % of neuronal positive control.
Where [11] appears, read: hNSCs, agent run independently, % of neuronal positive control, basal media subtracted, read-out: EC50 for neuronal differentiation, agent alone.
Setting [12] is: hNSCs, test agent dose response with constant 0.316 μM AMPA, read-out: EC50 for neuronal differentiation in combination with 0.316 μM AMPA.

Where “and” joins values, the source holds several entries; their conditions need not be identical. Equal entries are not always repeated. Entries after “also recorded” stand apart in the source; their conditions may differ. Structures can show the parent of a compound that is named as a salt. Where two headings read alike, the source gives them in different places. Peptide text beside a SMILES is read from it. * marks the point of attachment. PhAc = O=C(Cc1ccccc1)* Where only a bound is given, the exact number is not on record here.

A word on the EC50: it is the midpoint of the concentration-response curve. For `O=C1CC2(CCCC2)CC(=O)N1CCCCN1CCN(c2ncccn2)CC1` [buspirone], in test [1] (setting [9]), the half-maximal effective concentration (EC50) amounted to 7.43 µM.
Regarding `NC(=O)CN1CCCC1=O` [Piracetam], the EC50 in test [1] (Homo sapiens, Neural stem cell, hNSCs, with 1.0 μM AMPA antagonist NBQX, read-out: EC50 for neuronal differentiation in the presence of 1.0 μM NBQX) was over 32 µM. Further, the Emax in test [1] (Homo sapiens, Neural stem cell, hNSCs, % of neuronal positive control, read-out: maximum percent neuronal differentiation (maximum efficacy), agent alone) turned out to be 60%. Moreover, the “effect on neuronal differentiation, agent alone (in words)” value in test [1] (hNSCs) is listed as “promoted neuronal differentiation”. Moreover, the “maximal percent neuronal differentiation in the presence of 1.0 μM NBQX” value in test [1] (setting [10]) is 38%.
Consider `COc1ccc2[nH]cc(CCNC(C)=O)c2c1` [melatonin], for which the 50% effective concentration (EC50) in test [1] (setting [9]) amounted to 320 µM.
As usually defined, the IC50 is the concentration at which inhibition is half-maximal. In the case of `NC1(C(=O)O)CCc2cc(P(=O)(O)O)ccc21` (racemic) [APICA, (RS)-1-amino-5-phosphonoindan-1-carboxylic acid], the IC50 in test [2] and in test [4] was about 30 µM in each case. For the same molecule, the “activity against Group I or Group III receptors (in words)” value in test [3] is listed as “no appreciable activity”.
`NC(=O)c1ncn([C@@H]2O[C@H](CO)[C@@H](O)[C@H]2O)n1` [ribavirin]: the EC50 in test [1] (setting [9]) came out at 5.14 µM.
With `CC(=O)NCCCS(=O)(=O)O` [acamprosate], the values for the EC50 in test [1] (setting [9]) and in test [1] (setting [11]) were 16.4 µM and 9.68 µM, respectively.
Take `N[C@@]1(C(=O)O)CO[C@H]2[C@H](C(=O)O)[C@H]21` [LY379268, (−)-2-oxa-4-aminobicyclohexane-4,6-dicarboxylic acid]: the concentration giving a half-maximal response (EC50) in test [5] and in test [6] was under 0.01 µM in each case.
For the molecule `NC(=O)COc1c(F)cc(SCCNS(=O)(=O)c2ccccc2)cc1F` [PEPA], the “effect on neuronal differentiation in the presence of 0.316 μM AMPA (in words)” value in test [1] (hNSCs, constant 0.316 μM AMPA) is “stimulation of neuronal differentiation that was dose-dependent upon PEPA”. The “effect on neuronal differentiation, agent alone (in words)” value in test [1] (hNSCs) is reported as “No effect on neuronal differentiation; also recorded: did not significantly enhance neuronal differentiation”. Also, the half-maximal effective concentration (EC50) in test [1] (setting [12]) stood at 0.69 µM.
Consider `Cc1onc(O)c1CC(N)C(=O)O` (stereo not drawn) [AMPA, alpha-amino-3-hydroxy-5-methyl-4-isoxazolepropionic acid], for which the EC50 in test [1] (Homo sapiens, Neural stem cell, read-out: EC50 for neuronal differentiation in the presence of 1.0 μM NBQX, hNSCs, with 1.0 μM AMPA antagonist NBQX) was over 32 µM. For the same molecule, in test [1] (Homo sapiens, Neural stem cell, read-out: maximum percent neuronal differentiation (maximum efficacy), agent alone), the Emax worked out at 50%. Besides, in test [1] (hNSCs, AMPA 0.316 μM), the “effect of AMPA at 0.316 μM alone on neuronal differentiation (in words)” value is listed as “failed to stimulate neuronal differentiation; also recorded: no effects on neuronal differentiation”. Moreover, the “effect on neuronal differentiation, agent alone (in words)” value in test [1] (hNSCs) is given as “promoted neuronal differentiation”. Further, the “maximal percent neuronal differentiation in the presence of 1.0 μM NBQX” value in test [1] (setting [10]) was found to be 7%.
On to `N[C@](CC1c2ccccc2Oc2ccccc21)(C(=O)O)[C@H]1C[C@@H]1C(=O)O` [LY341495, (2S)-2-amino-2-(1S,2S-2-carboxycycloprop-1-yl)-3-(xanth-9-yl) propanoic acid], for which the “activity against KA, AMPA, and NMDA iGlu receptors (in words)” value in test [7] was “substantially inactive”.
As for `CCOC(=O)CNC(=O)[C@@H]1CCCN1C(=O)Cc1ccccc1` [SGS-111] (PhAc-Pro-Gly-OEt), in test [1] (setting [10]), the “maximum percent neuronal differentiation (maximum efficacy), agent alone” value is about 40%. Further, the “maximum percent neuronal differentiation (maximum efficacy) in combination with 0.316 μM AMPA” value in test [1] (hNSCs, % of neuronal positive control, constant 0.316 μM AMPA) was “approximately 60%”. In addition, the 50% effective concentration (EC50) in test [1] (setting [11]) was 7.2 µM; in test [1] (setting [12]), 4.2 µM. Moreover, the “effect on neuronal differentiation in the presence of 0.316 μM AMPA (in words)” value in test [1] (hNSCs, constant 0.316 μM AMPA) was “a greater number of neurons at the highest concentration tested”. The “number of visits to / preference for the novel object versus familiar object” value in test [8] is “statistically significant increase”.
With `CCCCN(CC)c1nc(C)nc2c1c(C)c(C)n2-c1c(C)cc(C)cc1C` [antalarmin], the concentration for a half-maximal effect (EC50) in test [1] (setting [9]) amounted to 4.68 µM.
Take `NCC1CC(=O)N(Cc2ccccc2)C1` (stereo not shown) [nebracetam]: the Emax in test [1] (Homo sapiens, Neural stem cell, hNSCs, % of neuronal positive control, constant 0.316 μM AMPA, read-out: maximum percent neuronal differentiation (maximum efficacy) in combination with 0.316 μM AMPA) was found to be 63%. For the same molecule, the “effect on neuronal differentiation in the presence of 0.316 μM AMPA (in words)” value in test [1] (hNSCs, constant 0.316 μM AMPA) was “promoted dose dependent neuronal differentiation”. Besides, the “effect on neuronal differentiation, agent alone (in words)” value in test [1] (hNSCs) is given as “failed to stimulate neuronal differentiation; also recorded: no effect on neuronal differentiation”. The EC50 in test [1] (setting [12]) was 0.28 µM and 0.97 µM.
As to `COC(=O)C(c1ccccc1)C1CCCCN1` (stereo not shown) [methylphenidate HCl, methylphenidate hydrochloride], the EC50 in test [1] (Homo sapiens, Neural stem cell, read-out: EC50 for neuronal differentiation, agent alone, hNSCs, agent run independently, % of neuronal positive control, basal media subtracted) came to 1.29 µM.
In the case of `COC(=O)[C@@H]1[C@H]2C[C@H]3c4[nH]c5ccccc5c4CCN3C[C@@H]2CC[C@@H]1O` [yohimbine], in test [1] (setting [9]), the EC50 was 0.62 µM.
Turning to `O=C1CC[C@H](C(=O)N2CCCCC2)N1` [fasoracetam], the EC50 in test [1] (setting [9]) was 3.13 µM.
Turning to `CC(=O)N1CCN(NC(=O)c2ccc(F)cc2)CC1` [FK-960], the EC50 in test [1] (setting [11]) was found to be 7 µM. Besides, the “effect on neuronal differentiation, agent alone (in words)” value in test [1] (hNSCs) was “promoted neuronal differentiation”.
Consider `CCCc1nc2c(C)cc(-c3nc4ccccc4n3C)cc2n1Cc1ccc(-c2ccccc2C(=O)O)cc1` [telmisartan], for which the concentration for a half-maximal effect (EC50) in test [1] (setting [9]) was 2.75 µM.
